This is an account of results in EP0114563A1, “Cytostatically effective combination” (SCHERING AKTIENGESELLSCHAFT, priority 1982, dated 1984).

Like-named read-outs stand apart in the source and are kept apart here.

In this assay the test system is human leukemic cells. As to the kind of experiment: Inhibition of cell proliferation (growth kinetics by cell counting) in culture. The note with it: L-Dopa 10 µg/ml, read-out: inhibition in %, based on a control free of active agent. The text has this: Every second day, the culture medium of each test batch was replaced by fresh medium and active agent.

As usually defined, the inhibition is the drop in the measured response relative to a control, in per cent. As to `N[C@@H](Cc1ccc(O)c(O)c1)C(=O)O` [L-Dopa, 3-hydroxy-L-tyrosine], the inhibition at 10 µg/mL is, setting by setting: (72 Hrs.) 18%; (144 Hrs.) 58%.
